The values that follow come from patent US20070196277A1, “Compositions and Methods for the Direct Therapy of Tumors” (priority 2006, published 2007).

Where two headings read alike, the source gives them in different places.

Data set [1] has as its system intracerebral T9 gliosarcoma tumors. The conditions noted are these: same dose delivered systemically; cited from earlier work.
For data set [2], the system named is Walker Carcinosarcoma 256 tumors. The conditions noted are these: cited from earlier work.
For data set [3] the following is noted: cited from earlier work.
The conditions of data set [4]: cited from earlier work. This is another data set of the same source.
Data set [5] relates to marrow cells. The note with it: in vitro human bone marrow assay; cited from earlier work.
The conditions of data set [6]: cited from earlier work. This is another data set of the same source.
Data set [7] addresses T1, dihydrouracil dehydrogenase (Homo sapiens, UniProt Q12882).
T1 sequence (Q12882 4-1025): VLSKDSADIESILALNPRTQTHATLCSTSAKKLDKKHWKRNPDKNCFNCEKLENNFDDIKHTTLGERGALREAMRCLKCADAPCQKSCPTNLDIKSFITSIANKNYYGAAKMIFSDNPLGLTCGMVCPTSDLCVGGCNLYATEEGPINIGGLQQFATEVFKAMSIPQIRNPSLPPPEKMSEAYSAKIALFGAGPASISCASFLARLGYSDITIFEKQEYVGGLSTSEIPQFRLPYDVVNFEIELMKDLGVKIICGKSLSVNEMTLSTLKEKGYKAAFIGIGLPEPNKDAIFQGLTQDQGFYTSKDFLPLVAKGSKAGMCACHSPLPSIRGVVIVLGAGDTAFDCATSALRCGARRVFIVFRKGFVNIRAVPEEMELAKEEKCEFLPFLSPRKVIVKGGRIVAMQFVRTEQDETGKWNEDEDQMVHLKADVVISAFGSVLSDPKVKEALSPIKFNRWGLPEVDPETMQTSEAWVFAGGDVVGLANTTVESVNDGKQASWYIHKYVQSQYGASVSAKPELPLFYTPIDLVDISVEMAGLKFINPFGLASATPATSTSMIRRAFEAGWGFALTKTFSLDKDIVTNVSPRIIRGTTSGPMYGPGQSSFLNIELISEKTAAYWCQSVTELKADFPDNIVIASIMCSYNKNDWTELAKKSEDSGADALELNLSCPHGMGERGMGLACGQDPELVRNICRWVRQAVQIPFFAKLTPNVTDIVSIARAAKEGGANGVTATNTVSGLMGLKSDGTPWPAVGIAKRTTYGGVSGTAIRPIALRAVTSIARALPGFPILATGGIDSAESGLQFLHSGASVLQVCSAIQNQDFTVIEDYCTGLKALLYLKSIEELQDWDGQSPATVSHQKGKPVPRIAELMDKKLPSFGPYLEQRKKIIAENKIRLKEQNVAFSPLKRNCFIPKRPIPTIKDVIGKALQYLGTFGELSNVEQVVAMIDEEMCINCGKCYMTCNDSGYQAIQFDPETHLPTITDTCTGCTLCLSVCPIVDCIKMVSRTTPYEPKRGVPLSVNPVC
The conditions noted are these: cited from earlier work.

The conditions of data set [8]: powder, light-protected container, room temperature; cited from earlier work.
The test system of data set [9] is rat brain. The source says: This conversion is based upon comparison of the mass of the rat brain (approximately 2.5 gms) and human brain (approximately 1350 gms).
The subject of data set [10] is cat brain. The text has this:
This conversion is based upon comparison of the cat brain (approximately 20 gms) and human brain (approximately 1350 gms).

The conditions of data set [11]: cited from earlier work. The source holds these as a separate data set.

For `O=NN(CCCl)C(=O)NCCCl` [BCNU, 1,3-bis(2-chloroethyl)-1-nitrosourea], in data set [1], the cures result is reported as “no cures” and the “increase in life span” value is reported as “no increase in life span”. The antitumor efficacy entry in data set [2] (aqueous vehicle, injected intratumorally) is “had antitumor efficacy, but far less than the same BCNU dose formulated in ethanol”. Further, in [2] (systemic administration, same dose (25 mg/kg)), the therapeutic benefit result was “no therapeutic benefit”. Further, in [3], the “half life in serum” value is recorded as “about 15 minutes”. In addition, in [4] (in vivo), the blood-brain barrier passage result is on record as “crosses the blood-brain barrier quite effectively” and the “total dose excreted as respiratory CO2” value is listed as “about 10%”. Further, in [4] (intravenous, after 60 minutes), the “intact BCNU in serum” value is listed as “little intact BCNU”.
Take `O=c1[nH]c(=O)n([C@H]2C[C@H](O)[C@@H](CO)O2)cc1I` [IdUrd, 5-iodo-2′-deoxyuridine]: the “cytotoxicity to marrow cells relative to IUra” value in [5] is on record as “at least 100 times”.
On to `Oc1ncc(I)c(O)n1` [IUra, 2,4-dihydroxy-5-iodopyrimidine], for which the “apparent Michaelis constant of disappearance from plasma” value in [6] (after the infusion, nonlinear) is on record as 30 mumol/L. In addition, in data set [6] (following infusion of 500 to 1200 mg/m^2 of IdUrd), the “maximum plasma IUra concentration” value is recorded as 100 mumol/L. For the same compound, in data set [6] (following infusion of IdUrd), the “plasma IUra relative to simultaneous IdUrd plasma concentration” value is “about 10 times”. In addition, the “inhibition of dihydrouracil dehydrogenase” value in data set [7] was “competitive inhibitor”. The storage stability in [8] is recorded as 1 year.
In the case of `CCO` [ethanol], the “maximally tolerated volume extrapolated to normal human brain” value in data set [9] (from rat, by brain mass 2.5 gms vs 1350 gms) was 10.8 mL; in data set [10] (from cat, by brain mass 20 gms vs 1350 gms), 27 mL. Moreover, the “maximally tolerated volume with no apparent neurologic deficit” value in data set [9] (rat brain) came to 20 μl; in data set [10] (cat brain, unpublished data), 0.4 ml.
Consider `CC(C)NC(C)Cc1ccc(I)cc1` (stereo not drawn) [iofetamine, N-isopropyl-p-iodoamphetamine], for which, in data set [11] (biphasic elimination), the “plasma elimination half-time, first phase” value is 1.6 ± 1.2 h and the “plasma elimination half-time, second phase” value was 10.9 ± 6.1 h. The blood-brain barrier passage entry in data set [11] (in vivo) is listed as “crosses the intact blood-brain barrier”.
